The values that follow come from PubChem BioAssay AID624385 (Sanford-Burnham Center for Chemical Genomics, 2012).

In this assay the target is Small ubiquitin-related modifier 2 (Homo sapiens) (UniProt P61956). In words: disruption of SUMO2 interaction with SIM peptide – biochemical, fluorescence polarization, uHTS hits, selectivity assay for SUMO1 interaction inhibitor project, dose response (AID 624385). To be noted: SUMO2-SIM peptide binding. For orientation: Polarisation of emitted light reports the rotation of a fluorescent probe.
Small ubiquitin-related modifier 2 (Homo sapiens), sequence (P61956 whole entry, looked up): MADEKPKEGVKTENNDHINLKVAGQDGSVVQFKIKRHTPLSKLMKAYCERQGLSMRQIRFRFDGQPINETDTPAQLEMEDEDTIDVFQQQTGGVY

Activity calls are given as the source filed them. No rule for the calls is given here.

In the case of `N#CC(C(=O)Nc1cccc(Cl)c1)=C1Nc2ccccc2N1`, the IC50 is > 66 µM (inactive).
For `C[c-]1[c-](C)[c-](C)[c-](C)[c-]1C.[Fe].c1cc2nccc(N3CCCC3)[c-]2c1` (configuration not stated) the value was “inactive”.

As a reminder, the IC50 is the concentration that gives 50% inhibition.
